Experimental data from paper PMC8976068, “Structural basis to repurpose boron-based proteasome inhibitors Bortezomib and Ixazomib as β-lactamase inhibitors” (Scientific Reports, 2022).
Read-outs that look alike come from different tables or passages of the source.

Tests used:
CTX-M-14 β-lactamase [1] = target: T1, CTX-M-14 β-lactamase (Klebsiella pneumoniae, UniProt A0A2S1JJX2); assay: crystal structure ([…] Å, soaking); also purified enzyme inhibition assay, cefotaxime hydrolysis; format: biochemical
T1 sequence (A0A2S1JJX2 entry or part of it): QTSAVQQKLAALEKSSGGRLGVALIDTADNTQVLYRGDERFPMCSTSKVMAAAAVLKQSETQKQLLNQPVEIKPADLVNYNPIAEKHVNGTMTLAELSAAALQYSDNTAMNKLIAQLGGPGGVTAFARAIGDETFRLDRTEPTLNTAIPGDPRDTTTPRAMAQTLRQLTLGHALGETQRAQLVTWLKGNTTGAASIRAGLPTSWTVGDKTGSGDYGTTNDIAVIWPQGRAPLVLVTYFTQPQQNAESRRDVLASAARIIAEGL

CTX-M-14 β-lactamase [2] = target: T1, CTX-M-14 β-lactamase; assay: as above; format: biochemical; remark: listed apart in the source

| IC50 (CTX-M-14 β-lactamase [1]) | Structure (SMILES) | IC50 (CTX-M-14 β-lactamase [2]) |
| --- | --- | --- |
| 67 ± 1.4 µM | CC(C)C[C@H](NC(=O)[C@H](Cc1ccccc1)NC(=O)c1cnccn1)B(O)O [Bortezomib] | – |
| – | CC(C)C[C@H](NC(=O)CNC(=O)c1cc(Cl)ccc1Cl)B(O)O [Ixazomib] | 13 ± 1.2 µM |
